For one series, the system named is NFκB. Briefly: Hepatic NFκB gene expression (qPCR). Particulars: rat liver, qPCR relative to β-actin; Cd vs control; AEO with Cd vs Cd alone group; FIG. 3D. It counts as in vivo. The protocol:
To study the hepatic protective activity of Achillea millefolium essential oil (AEO) on CdCl2-induced hepatic toxicity, male Wistar rats (weighing, 180 g-200 g) were purchased from the Experimental Animal Research Centre, King Saud University, Riyadh, KSA. The animals were randomly divided into four groups (n=8 per group). For Group I (the Control group), the animals were pre-administered with 0.9% NaCl (physiological saline), 2 hours before the injection of 0.9% NaCl (physiological saline) i.p., daily for 7 days. For Group II (the CdCl2 group), the animals were pre-administered with 0.9% NaCl (physiological saline) 2 hours before injection of 6.5 mg/kg CdCl2 i.p. daily for 7 days. […]
Gene expression for the Nrf2 pathway, including nuclear factor erythroid 2-related factor 2 (Nrf2), hemeoxygenase-1 (HO-1), NAD(P)H: quinone oxidoreductase 1 (NQO1) and Nuclear factor kappa B (NFκB) were quantified via real-time PCR (qPCR) consuming the primers' sequences, shown in Table 1, in agreement with the method described elsewhere. […] Relative gene expression data were calculated as mentioned earlier by the Livak and Schmittgen method (2-ΔΔCq2) and presented as a fold change. Target gene expressions were assessed and related to the reference gene (β-actin).
For orientation: Real-time PCR tracks product formation cycle by cycle.

A further series has as its system Nrf2/HO-1/NQO1. The experiment in a line: Hepatic Nrf2 pathway gene expression (qPCR). Format: in vivo. Particulars: rat liver, qPCR relative to β-actin, Cd vs control, AEO + CdCl2 vs CdCl2 group. The protocol: To study the hepatic protective activity of Achillea millefolium essential oil (AEO) on CdCl2-induced hepatic toxicity, male Wistar rats (weighing, 180 g-200 g) were purchased from the Experimental Animal Research Centre, King Saud University, Riyadh, KSA. The animals were randomly divided into four groups (n=8 per group). For Group I (the Control group), the animals were pre-administered with 0.9% NaCl (physiological saline), 2 hours before the injection of 0.9% NaCl (physiological saline) i.p., daily for 7 days. For Group II (the CdCl2 group), the animals were pre-administered with 0.9% NaCl (physiological saline) 2 hours before injection of 6.5 mg/kg CdCl2 i.p. daily for 7 days. For Group III (the AEO group), the animals were pre-administered with 250 mg/kg AEO 2 hours before the injection of 0.9% NaCl (physiological saline) i.p. daily for 7 days. For Group IV (the AEO+CdCl2 group), the animals were pre-administered with 250 mg/kg AEO 2 hours before the injection of 6.5 mg/kg CdCl2 i.p. daily for 7 days. […]
Gene expression for the Nrf2 pathway, including nuclear factor erythroid 2-related factor 2 (Nrf2), hemeoxygenase-1 (HO-1), NAD(P)H: quinone oxidoreductase 1 (NQO1) and Nuclear factor kappa B (NFκB) were quantified via real-time PCR (qPCR) consuming the primers' sequences, shown in Table 1, in agreement with the method described elsewhere. Briefly, RNA was isolated and purified using a Trizol reagent kit (Invitrogen, Carlsbad, CA, USA), then a reverse transcription polymerase chain reaction (RT-PCR) kit (TaKaRa, Kusatsu, Shiga, Japan) following the manufacturer's procedures. qPCR was applied using a SYBR ExScript RT-PCR kit, and quantification examinations were accomplished via an Opticon-2 Real-4 time PCR reactor (MJ Research, Capital Court, Reno, NV, USA). qPCR results were obtained using Step PE Applied Biosystems (Waltham, MA, USA) software. Relative gene expression data were calculated as mentioned earlier by the Livak and Schmittgen method (2-ΔΔCq2) and presented as a fold change. Target gene expressions were assessed and related to the reference gene (β-actin).

A short description of series [1]: Determination of Cd concentration in liver tissue. Format: in vivo, rat. As to the method: (§1) To study the hepatic protective activity of Achillea millefolium essential oil (AEO) on CdCl2-induced hepatic toxicity, male Wistar rats (weighing, 180 g-200 g) were purchased from the Experimental Animal Research Centre, King Saud University, Riyadh, KSA. The animals were randomly divided into four groups (n=8 per group). For Group I (the Control group), the animals were pre-administered with 0.9% NaCl (physiological saline), 2 hours before the injection of 0.9% NaCl (physiological saline) i.p., daily for 7 days. For Group II (the CdCl2 group), the animals were pre-administered with 0.9% NaCl (physiological saline) 2 hours before injection of 6.5 mg/kg CdCl2 i.p. daily for 7 days. For Group III (the AEO group), the animals were pre-administered with 250 mg/kg AEO 2 hours before the injection of 0.9% NaCl (physiological saline) i.p. daily for 7 days. For Group IV (the AEO+CdCl2 group), the animals were pre-administered with 250 mg/kg AEO 2 hours before the injection of 6.5 mg/kg CdCl2 i.p. daily for 7 days. Twenty-four hours after the last treatment, the animals were killed and the liver was quickly removed and weighed.
Cd concentration was measured using conventional methods. Liver tissue was weighed and dried in an oven for 4 hours at 250° C. […] Cd concentrations were determined by spectrophotometry at […]. The Cd concentrations are expressed as μg/g of wet liver tissue.

The subject of series [2] is CdCl2-induced hepatic toxicity. The experiment in a line: Determination of hepatic oxidative stress markers. It counts as in vivo, rat. Particulars: rats, CdCl2 vs control, AEO 250 mg/kg + CdCl2 vs CdCl2 group. As to the method: as §1
(§2) Parts of the frozen liver samples (50 mg) were homogenized in 1 ml ice-cold phosphate buffer saline containing a protease/phosphatase inhibitor cocktail. The homogenates were centrifuged at 10,000×g for 15 minutes at 4° C. and the supernatants were isolated to new tubes. The tubes were kept at −20° C. until further biochemical analysis.
Lipid peroxidation was assessed according to the amount of malondialdehyde (MDA). The activities of catalase, superoxide dismutase (SOD) glutathione peroxidase (GSH-Px) and glutathione reductase (GSH-R) were estimated using kits, according to manufacturer protocol.

A short description of series [3]: Changes in body weight of rats in CdCl2-induced hepatic toxicity study. Format: in vivo, rat. Particulars: male Wistar rats, n=8 per group; AEO 250 mg/kg 2 hours before saline or CdCl2 6.5 mg/kg i.p., daily for 7 days; mean ± SD. As to the method: as §1
In series [4] the test system is CdCl2-induced hepatic toxicity. The experiment in a line: Determination of liver inflammatory markers. Format: in vivo, rat. Particulars: rats, CdCl2 vs control, AEO 250 mg/kg + CdCl2 vs CdCl2 group. As to the method:
as §1, §2
Inflammation markers including tumor necrosis factor alpha (TNF-α), interleukin 1β (IL-1β), intracellular adhesion molecule-1 (ICAM-1) and myeloperoxidase (MPO) were measured according to the manufacturer protocol of the Kit.

Series [5] has as its system CdCl2-induced hepatic toxicity. Briefly: Liver function test (serum enzymes, ELISA kits). It counts as in vivo, rat. Particulars: rats, Cd vs control group, AEO 250 mg/kg + CdCl2 vs CdCl2 group. The protocol: as §1
The activities of alanine transaminase (ALT), aspartate aminotransferase (AST), alkaline phosphatase (ALP), lactate dehydrogenase (LDH) enzymes and γ-glutamyltransferase1 (γGTT1) were determined using ELISA kits.

Regarding `[Cl][Cd][Cl]` [CdCl2], the “NFκB mRNA expression level” value in the series with NFκB was “significantly augmented”. Also, in the series on Nrf2/HO-1/NQO1 (FIG. 3A), the “Nrf2 mRNA expression level” value is “decreased”. In the series on Nrf2/HO-1/NQO1 (FIG. 3B), the “HO-1 mRNA expression level” value is recorded as “decreased”. In addition, in the series with Nrf2/HO-1/NQO1 (FIG. 3C), the “NQO1 mRNA expression level” value is reported as “decreased”. The “Cd concentration (μg/g liver tissue)” value in series [1] (male Wistar rats, AEO 250 mg/kg 2 hours before saline or CdCl2 6.5 mg/kg i.p., daily for 7 days, liver 24 h after last treatment, mean ± SD) is reported as 0.74 ± 0.023 μg/g liver tissue. Also, in series [1] (rats, CdCl2 vs control group, AEO prior to CdCl2 vs CdCl2 group, p<0.05), the “Concentration of Cd in hepatic tissue (change)” value is on record as “significantly increased”. For the same compound, the “hepatic MDA level (lipid peroxidation)” value in series [2] (FIG. 2A) was “augmented”. Moreover, the “hepatic GSH-Px activity” value in series [2] (FIG. 2B) is on record as “considerably declined”. Besides, in series [2] (FIG. 2C), the “hepatic GSH-R activity” value is recorded as “considerably declined”. In series [2] (FIG. 2D), the “hepatic SOD activity” value was “considerably declined”. Further, the “hepatic CAT (catalase) activity” value in series [2] (FIG. 2E) is given as “considerably declined”. Also, the Final weight in series [3] was found to be 190.84 ± 4.41. For the same compound, the TNF-α hepatic level result in series [4] (FIG. 4A) is “augmented”. Besides, the IL-1β hepatic level entry in series [4] (FIG. 4B) is reported as “augmented”. In series [4] (FIG. 4C), the MPO hepatic level result is on record as “augmented”. Also, the ICAM-1 hepatic level result in series [4] (FIG. 4D) was “augmented”. Further, the “serum ALT level” value in series [5] (FIG. 1A) is “increase”. Moreover, the “serum AST level” value in series [5] (FIG. 1B) is given as “increase”. Further, the “serum ALP level” value in series [5] (FIG. 1C) is given as “increase”. For the same compound, the “serum LDH level” value in series [5] (FIG. 1D) is “increase”. Further, the “serum γGTT1 level” value in series [5] (FIG. 1E) was “increase”.

These data come from US12115202B1, “Method of preventing cadmium-induced liver toxicity using a plant product derived from Achillea millefolium L” (KING FAISAL UNIVERSITY, priority 2024, dated 2024).
